# Entries after “also recorded” stand apart in the source; their conditions may differ.
# Tests used:
# Glu-tubulin = experiment: Western blotting of modified tubulin isoforms in attached or suspended cells; assay type: cell-based, mouse; conditions: for cellular levels of Glu-tubulin: EpH4-Bcl2, attached or detached, LA 5 μM
# Protocol: EpH4-Bcl2 cells were grown attached to tissue culture dishes or suspended over agarose for the indicated times in either the absence or presence of LA (5 μM). In FIG. 5A, cell lysates were immunoblotted to detect levels of modified tubulin isoforms in the cell populations. In FIG. 5B, modified α-tubulin isoforms were normalized to total α-tubulin and then compared relative to the levels in attached cells at time zero. Bars represent the mean+S.E.M. of four independent experiments. […] Differences in Glu-tubulin upon detachment were also statistically-significant when compared to matched controls at time zero or one hour (black asterisks).
# Whole cell lysates were prepared from EpH4 cells that were scraped or suspended in the presence or absence of 5 μM Latrunculin-A. Cells were pelleted at 3000 rpm×5 min and resuspended in lysis buffer (2% SDS, 100 mM Tris-HCl (pH 6.8), 20% Glycerol, 20 mM DTT, 1 mM phenylmethylsulfonyl fluoride, 1% protease inhibitor cocktail (Sigma, P2714)), and then immediately boiled for 10 min. Protein concentration was measured using a Lowry based assay (Bio-Rad, Hercules, Calif.). The amount of 17.5 μg of protein from each sample was separated by SDS-PAGE on 10% polyacrylamide gels and then transferred to Immuno-Blot PVDF membranes (Bio-Rad, Hercules, Calif.). The membrane was blocked in 2% milk in TBS with 0.1% Tween for 1 hr at room temperature followed by an overnight incubation at 4° C. in monoclonal α-tubulin (1:1000), tyrosinated tubulin (1:1000), acetylated tubulin (1:1000), and polyclonal detyrosinated tubulin (1:1000) in 1% milk in TBST. Secondary antibodies to IgG conjugated to horseradish peroxidase were used (1:5000; GE Healthcare, Piscataway, N.J.) and visualized using ECL chemiluminescent detection kit.
# Immediately following detachment, levels of Glu-tubulin increase and remain elevated for at least 2 hours. […] The increased length and number of protrusions in response to LA may therefore reflect a decrease in an actin-dependent counteracting force, rather than a direct induction of protrusions.
# MCF10A cells = experiment: Protrusions in suspended cells treated with cytoskeletal inhibitors (MCF10A); assay type: cell-based, human; set-up: protrusions counted with phase-contrast microscopy: dose or concentration left out as unconfirmed
# Protocol: In FIG. 2A, after 15 minutes of suspension, protrusions in EpH4 and MCF10A cells are quite small (Control, white arrows). […] In FIG. 2B, populations of live, suspended cells were scored blindly for two or more protrusions longer than the cell radius. Each bar represents the mean+S.D. for three experiments in which at least 100 single cells were counted.
# In order to initially characterize the cytoskeletal mechanism underlying these protrusions, suspended cells were treated with inhibitors of actin and tubulin polymerization (FIG. 2). After 15 minutes of suspension, the protrusions in untreated EpH4 or MCF10A cells remain fairly short (FIG. 2, white arrows). These early protrusions can often be difficult to detect with phase-contrast microscopy, due to interfering light refraction from the plasma membrane. […] Protrusions were more easily visible with immunofluorescence than phase contrast microscopy (FIG. 3, white arrows). Although actin filament staining was generally low along the length of the protrusion, dense points of actin were often found at the end of protrusions (FIG. 3, arrowheads).
# The nontumorigenic human mammary epithelial cell line (MCF10A) or the indicated human breast tumor cell lines were grown in suspension for 30-60 minutes, and protrusions were counted in random fields with phase-contrast microscopy. Values represent the mean±S.D. of three experiments in which at least 100 cells were counted. […] This effect was most apparent in the highly metastatic but exemplary Bt-474 and MDA-MB-231 cells (pictured, black arrows). The exemplary MCF10A cells show far fewer and shorter protrusions at the same time point (pictured, white arrows). Such protrusions are not observed in attached cells.
# [1] = test system: detached mammary epithelial cells; experiment: Protrusions of detached mammary epithelial cells, general statements; assay type: cell-based, human and mouse
# Protocol: Time-lapse video microscopy of detached mammary epithelial cells detected the extension of long, dynamic protrusions of the plasma membrane, and the present inventors have characterized the cytoskeletal mechanism underlying this novel observation. […] This response may be relatively short-lived, in specific embodiments, since mammary epithelial cells die by apoptosis within about 24 hours in suspension. However, cell lines that resist apoptosis through expression of either Bcl-2 or Bcl-xL will persistently form protrusions. Previous studies by the inventors indicate that such apoptotically-resistant cell lines will not form tumors in mice and lie dormant in distant tissues, in specific embodiments of the invention. […] These microtubule processes can extend more than 3 times the cell diameter, and undergo a rapid probing motion more than once per second. Formation of these microtubule protrusions is necessary for efficient cell-cell and cell-substratum attachment. In particular embodiments of the invention, this inherent microtubule response in detached mammary epithelial cells provides at least some of the invasive characteristics of breast cancer, independent of any tumor-specific genetic alteration, for example.
# Breast tumor cells enter the bloodstream long before the development of clinically evident metastasis. However, the early presence of such bloodborne cells predicts poor patient outcome. Nearly 90% of human breast tumors arise as carcinomas from mammary epithelial cells, so it is important to characterize how these cells respond to the detached conditions that they would experience in the bloodstream. In the present invention, mammary epithelial cell lines produce long and dynamic protrusions of the plasma membrane when detached. Although human and mouse mammary epithelial cell lines die by apoptosis within 16 hours of detachment, this protrusive response persists for days in cells overexpressing either Bcl-2 or Bcl-xL, for example. […] Since bloodborne metastasis depends on both cell-cell and cell-matrix attachment, microtubule-based protrusions in detached mammary epithelial cells provide a novel target that could influence the metastatic spread of breast tumors.
# Detachment-induced increases in Glu-tubulin could promote plasma membrane protrusions of microtubules by preventing efficient capture at the actin cortex. […] Therefore, our current model is that detachment increases stabilized microtubules enriched in Glu-tubulin, while decreased actin polymerization simply promotes extension of these microtubule protrusions.
compound,measurement,setting,value
C/C1=C/C(=O)O[C@@H]2C[C@@H](CC[C@H](C)/C=C\C=C\CC1)O[C@@](O)([C@@H]1CSC(=O)N1)C2 [Latrunculin-A],"total cellular levels of α-tubulin, tyrosinated or acetylated tubulin","Glu-tubulin; EpH4-Bcl2, LA treatment",remain unaffected
same,cellular levels of Glu-tubulin,Glu-tubulin,did not increase
same,cellular levels of Glu-tubulin,Glu-tubulin; listed as LA,not specifically increased; also recorded: does not significantly increase cellular levels of Glu-tubulin
same,protrusions counted with phase-contrast microscopy,"MCF10A cells; MCF10A in suspension 30-60 minutes, LA",increases protrusions
same,protrusions,"MCF10A cells; MCF10A, 15 minutes of suspension, Latrunculin-A 5 μM, Colchicine 1 μM, listed as latrunculin-A",significantly enhanced both the number and length of protrusions
same,protrusions,[1],enhanced; also recorded: promotes the extension of microtubule protrusions

# — patent US8193238B2, “Inhibition of microtubule protrusion in cancer cells” (University of Maryland, Baltimore, priority 2006, dated 2012)
